In patent US11752132B2, “Materials and methods for improving gastrointestinal function” (University of Florida Research Foundation, Incorporated, priority 2010, dated 2023):
Several values for one entry are separate records, joined by “and”; a condition that tells them apart may be missing. Equal entries are not always repeated. Entries after “also recorded” stand apart in the source; their conditions may differ. Where two headings read alike, the source gives them in different places.

How the values were obtained:
[1] = system: small intestine mucosa; settings: mouse, in vivo
Protocol: Following each injection, transepithelial ISC, an indicator of net anion secretion, is measured using an Ussing chamber, at time points as indicated in FIG. 20. For each measurement, a minimum of 32 tissues is examined.

[2] = system: jejunum (HCO3^− secretion); experiment: pH stat measurement of HCO3^− secretion in stripped jejunal sheets; format: cell-based, mice; settings: for forskolin-stimulated HCO3^− secretion after blocker: blocker on luminal side (100 μM glibenclamide; NPPB)
Protocol: A Bi-burette TIM 856 (Radiometer Analytical SAS, Villeurbanne, France) was used to measure HCO3^− secretion in stripped jejunal sheets (Vidyasagar et al. 2005; Vidyasagar et al. 2004; Zhang et al. 2007). Automated pumps maintained a constant pH for luminal solution through the addition of 0.01 μl of 0.025 M sulfuric acid (H2SO4). Standard-to-stat pH calibration was established by adding a known quantity of H2SO4 to a weak buffering solution, which contains an increasing concentration of HCO3^− to produce a linear titration curve.
Jejunal tissues were exposed to a buffered solution on the bath side (serosal side), while the luminal side was exposed to an HCO3^− free, low-buffered solution (0.1-mM HEPES (4-(2-hydroxyethyl)-1-piperazineethanesulfonic acid) buffer, pH 7.4). The HCO3^− secretion was equivalent to the amount of acid added to the luminal solution to maintain the pH at 7.4 (or the stat pH). All experiments were performed under voltage-clamp conditions. HCO3^−-free solution was gassed with 100% O2 and HCO3^−-containing solution was gassed with 95% O2 and 5% CO2. The HCO3^− secretion was expressed as μeq h^−1·cm^−2 (Vidyasagar et al. 2005; Vidyasagar et al. 2004; Zhang et al. 2007).
After the tissue was mounted, HCO3^− secretions were initially present in the absence of bath HCO3^−, but rapidly fell towards 0 within 20-30 minutes. If bath HCO3^− was not present during the titration, the HCO3^− secretion remained close to 0. […] When inhibitors were added to the mucosal solution, the pH was adjusted and allowed to equilibrate for 30 minutes, until a steady rate of HCO3^− secretion was observed. When the inhibitor was added to the bath side, the tissue was also equilibrated for 30 minutes to achieve a steady rate of HCO3^− secretion (see Table 3).
All experiments were performed during the initial 1-hour steady-state period. 1 tissue from each animal was used for each experiment; only 1 experimental condition was studied with each tissue sample. All experiments were repeated for at least 4 times.

[3] = system: jejunal mucosa (net anion secretion); experiment: Ussing chamber transepithelial short circuit current (Isc) with transport blockers/forskolin; format: cell-based, mice; settings: for basal Isc after bumetanide: 100 μM bumetanide in bath solution; for bumetanide-insensitive Isc after mucosal addition of blocker: 10 μM NPPB, 100 μM glibenclamide
Description: To study active HCO3^− secretion, 8-week-old, non-irradiated and irradiated, male BALB/c mice were obtained from the National Cancer Institute. Mice were randomly divided into groups, and abdomens were irradiated according to the gastrointestinal acute radiation syndrome (GI ARS) model with a Shepherd Mark-I, using a ^137Cs source delivering γ-irradiation at 1.84 Gy/min. Radiation was given as a single fraction. The GI ARS model will achieve maximum radiation damage to intestinal tissues, and mimics intestinal injury during radiation therapy of pelvic or abdominal tumors.
Changes in short circuit current (Isc), both as a function of time following radiation and with increasing doses of radiation, were examined to determine the earliest time and the minimum radiation dose required to produce significant changes in Isc. These studies were approved by the University of Rochester Animal Care and Use Committee.
Following exsanguinations, jejunal segment was obtained by excluding the distal 12 cm of small intestine adjacent to the caecum. This segment was washed and flushed in ice-cold Ringer's solution before the mucosa was stripped from the underlying muscular layers (Zhang, Ameen et al. 2007). The mucosa was mounted between the 2 halves of an Ussing-type Lucite chamber with an area of 0.30 cm^2 (P2304, Physiologic instruments, San Diego, Calif. 92128 USA), and electrical parameters were recorded using a voltage/current clamp device (VCC MC-8, Physiologic instruments, San Diego, Calif. 92128 USA) (Vidyasagar et al. 2005; Vidyasagar et al. 2004; Zhang et al. 2007; Vidyasagar and Ramakrishna 2002).
To determine the contribution of NKCC1 to basal Isc, 100 μM bumetanide (Sigma-Aldrich Co., USA) was added to the bath solution.
To determine whether the bumetanide-insensitive portion of Isc occurs via an apical membrane anion channel, a non-specific anion channel blocker, 5-nitro-2-(3-phenylpropylamino)-benzoic acid (Sigma-Aldrich Co., USA) (10 μM NPPB), and a specific cystic fibrosis transmembrane conductance regulator (CFTR) blocker (100 μM glibenclamide, Sigma-Aldrich Co., USA) were applied.

[4] = system: jejunal mucosa (net anion secretion); experiment: as above; format: cell-based, mice; settings: 10 μM bumetanide
[5] = system: GI tract mucosa; settings: animal studies; cited from earlier work
[6] = system: glutamine transporter; experiment: Glutamine-stimulated Isc / saturation kinetics of glutamine transporter; format: cell-based, mice; settings: increasing IR dose
[7] = system: patients who have received pelvic radiation therapy; settings: oral glutamine feeding; patients after pelvic radiation therapy; cited from earlier work
[8] = system: mice with injury to small intestine mucosa; experiment: Oral administration of candidate nutrients in radiation, chemotherapy and Crohn's disease models; settings: for effect of oral administration on small intestine healing, paracellular conductance, electrolyte absorption, survival: each amino acid
Protocol: In a Crohn's disease model, mice are injected with anti-CD3 mAb (acute inflammatory model to mimic conditions of Crohn's disease).
The alterations of absorptive capacity of nutrients are determined using disease models with injury to small intestine mucosa, i.e., the radiation model, chemotherapy model, and the Crohn's disease model. Specifically, a candidate nutrient is orally administered to control mice and mice that received irradiation, chemotherapy, and anti-CD3 mAb, respectively. In addition, compositions containing various combinations of the candidate nutrients are orally administered.
To determine the absorptive capacity of each nutrient, bioelectric measurements are performed using an Ussing chamber. The measurements include: a) the sodium coupled-amino acid current (ISC) and changes in conductance, b) changes in saturation kinetics of each nutrient and changes in the ISC following the administration of each nutrient; and c) the electrolyte absorption studies using isotope flux studies in the presence and absence of the specific candidate nutrient.

[9] = clinical trials; cited from earlier work
[10] = system: lysine-transporter; experiment: Lysine-stimulated Isc / lysine transport kinetics; format: cell-based, mice
[11] = system: IR mice; settings: lysine 20 mg/mice/day orally for 5 days, thereafter every other day
Description: Gavage was used during the experiment, and treatments were given on the first 5 days after irradiation and every other day until 10 days after irradiation.

[12] = oral administration, radiation, chemotherapy and Crohn's disease models
[13] = oral feeding of an irradiated subject
[14] = 3 Gy, blocker in lumen solution / mucosal addition (100 μM DIDS or glibenclamide; NPPB)
[15] = radiation, chemotherapy and Crohn's disease models

Q: For `O=c1[nH]cc(F)c(=O)[nH]1` [5-FU, 5-fluorouracil], which “net anion secretion (transepithelial ISC)” value [1] is on record?
A: significant increase in net anion secretion

Q: What about the “toxicity to small intestine” value [1] of the same molecule?
A: maximum toxicity to small intestine

Q: What does the source list for `C=C[C@@]1(C)CC(=O)[C@]2(O)[C@@]3(C)[C@@H](O)CCC(C)(C)[C@@H]3[C@H](O)[C@H](OC(C)=O)[C@@]2(C)O1` [forskolin]?
A: HCO3^− secretion ([2]; 0 Gy + forskolin, Cl^− containing lumen solution): 8.4±0.4 μeq·h^−1·cm^−2; HCO3^− secretion ([2]; 0 Gy + forskolin, Cl^−-free lumen solution): 8.7±0.4 μeq·h^−1·cm^−2 and 8.7 ± 0.4^ μeq·h^−1·cm^−2; HCO3^− secretion ([2]; 3 Gy + forskolin, Cl^− containing lumen solution): 0.6 ± 0.2 μeq·h^−1·cm^−2; HCO3^− secretion ([2]; 3 Gy + forskolin, Cl^− containing lumen solution, listed as Forskolin): 0.6±0.2 μeq·h^−1·cm^−2; HCO3^− secretion ([2]; 3 Gy + forskolin, Cl^−-free lumen solution): 0.9 ± 0.2^ μeq·h^−1·cm^−2; forskolin-stimulated HCO3^− secretion ([2]; non-irradiated mice, bath Na^+ replaced with NMDG): 0.3±0.01 μeq·h^−1·cm^−2; forskolin-stimulated Isc ([3]; 0 Gy): 6.9±0.6 μeq·h^−1·cm^−2; forskolin-stimulated Isc in Cl^−-free solution ([3]; 0 Gy): 1.7±0.2 μeq·h^−1·cm^−2; forskolin-stimulated Isc in Cl^−-free solution ([3]; 3-Gy irradiated mice): 0.3±0.1 μeq·h^−1·cm^−2; forskolin-stimulated Isc ([3]; 3 Gy): 7.3±0.5 μeq·h^−1·cm^−2

Q: Which “HCO3^− secretion” value ([2]; 0 Gy + bumetanide, tissues treated with forskolin, Cl^−-free lumen solution) does the source give for `CCCCNc1cc(C(=O)O)cc(S(N)(=O)=O)c1Oc1ccccc1` [bumetanide] here?
A: 8.4 ± 0.4^ μeq·h^−1·cm^−2

Q: What about the “HCO3^− secretion” value ([2]; 3 Gy + bumetanide, Cl^−-free lumen solution) of the same molecule?
A: 0.8 ± 0.1^ns μeq·h^−1·cm^−2

Q: What about the “Isc associated with IR” value [4] of the same molecule?
A: abolished almost all of the Isc associated with IR

Q: What about the “basal Isc after bumetanide” value ([3]; 0-Gy mice, 1.6±0.2 without) of the same molecule?
A: 0.9±0.1 μeq·h^−1·cm^−2

Q: What about the “forskolin-stimulated Isc after bumetanide” value ([3]; 0 Gy) of the same molecule?
A: 1.3±0.2 μeq·h^−1·cm^−2

Q: And the “forskolin-stimulated Isc after bumetanide” value ([3]; 3 Gy)?
A: 0.4±0.1 μeq·h^−1·cm^−2

Q: And the “basal and forskolin-stimulated increase in Isc” value ([3]; bumetanide on bath side, Cl^−-free solution on both sides)?
A: did not inhibit basal and forskolin-stimulated increase in Isc

Q: What about the “basal Isc after bumetanide” value ([3]; irradiated (3 Gy) tissues, 5.5±0.5 without) of the same molecule?
A: 0.6±0.1 μeq·h^−1·cm^−2

Q: Which “protection of GI tract mucosa from injury caused by chemotherapy or radiation therapy” value [5] does the source give for `NC(=O)CC[C@H](N)C(=O)O` [glutamine] here?
A: protects both upper and lower GI tract mucosa from injury

Q: And the “Km of glutamine transporter (saturation kinetics)” value ([6]; FIG. 15)?
A: IR dose-dependent increase in Km

Q: What about the “glutamine-stimulated Isc” value ([6]; FIG. 15 legend) of the same molecule?
A: dose-dependent increase in glutamine-stimulated Isc

Q: And the “prevention or alleviation of acute diarrhea” value [7]?
A: fail to show that oral glutamine feeding can prevent or alleviate acute diarrhea

Q: What about the “small intestine mucosa barrier” value [8, 12] of the same molecule?
A: impairs small intestine mucosa barrier

Q: What about the survival of mice [8, 12] of the same molecule?
A: has adverse effects on survival of mice

Q: And the osmotic diarrhea [8, 13]?
A: cause osmotic diarrhea

Q: And the survival [8, 13]?
A: reduced survival

Q: What does the source list for `O=C(O)c1cc([N+](=O)[O-])ccc1NCCCc1ccccc1` [NPPB, 5-nitro-2-(3-phenylpropylamino)-benzoic acid]?
A: forskolin-stimulated HCO3^− secretion after blocker ([2]; 0 Gy + forskolin): 0.2±0.01 μeq·h^−1·cm^−2; HCO3^− secretion [2, 14]: 0.2±0.01 μeq·h^−1·cm^−2; bumetanide-insensitive Isc after mucosal addition of blocker ([3]; 0-Gy mice): 0.1±0.01 μeq·h^−1·cm^−2

Q: What does the source list for `COc1ccc(Cl)cc1C(=O)NCCc1ccc(S(=O)(=O)NC(=O)NC2CCCCC2)cc1` [glibenclamide]?
A: HCO3^− secretion ([2]; 0 Gy + bumetanide, tissues treated with forskolin, 100 μM blocker in lumen solution): 0.5 ± 0.1^ μeq·h^−1·cm^−2; forskolin-stimulated HCO3^− secretion after blocker ([2]; 0 Gy + forskolin): 0.1 ± 0.1^ μeq·h^−1·cm^−2; forskolin-stimulated HCO3^− secretion after blocker ([2]; 0 Gy + forskolin, listed as Glibenclamide): 0.1±0.1 μeq·h^−1·cm^−2; HCO3^− secretion ([2]; 0 Gy, blocker in lumen solution (100 μM DIDS or glibenclamide)): 0.5 ± 0.1^ μeq·h^−1·cm^−2; HCO3^− secretion ([2]; 3 Gy + bumetanide, 100 μM blocker in lumen solution): 0.2 ± 0.1^ns μeq·h^−1·cm^−2; HCO3^− secretion [2, 14]: 0.11±0.1 μeq·h^−1·cm^−2 and 0.1 ± 0.1^ns μeq·h^−1·cm^−2; bumetanide-insensitive Isc after mucosal addition of blocker ([3]; 0-Gy mice): 0.1±0.01 μeq·h^−1·cm^−2

Q: For `CS(=O)(=O)c1cc(C(=O)NC(=N)N)ccc1N1CCCCC1.Cl` [HOE694, 3-methylsulphonyl-4-piperidinobenzoyl, guanidine hydrochloride], which “cAMP-stimulated HCO3^− secretion after HOE694” value ([2]; 1 mM HOE694 on bath side, 8.4±0.4 without) is on record?
A: 7.2±0.9 μeq·h^−1·cm^−2

Q: With sucralfate as the molecule, how does the “reduction of acute GI symptoms (diarrhea prophylaxis)” value [9] read?
A: only a moderate reduction of acute GI symptoms was achieved

Q: For `NCCCC[C@H](N)C(=O)O` [lysine], which “Isc on addition of lysine to small intestine lumen side” value [10] is on record?
A: causes an increase in Isc

Q: And the Km ([10]; 3 Gy IR tissues)?
A: 270 ± 10 µM

Q: What about the “lysine-stimulated Isc” value ([10]; increasing IR dose, FIG. 16 legend) of the same molecule?
A: dose-dependent decrease in lysine-stimulated Isc

Q: What about the Km ([10]; tissues from non-IR mice) of the same molecule?
A: 1160 ± 40 µM

Q: And the “survival of IR mice with oral lysine” value [11]?
A: increased survival; also recorded: can increase survival in mice

Q: What about the “survival of IR mice with oral lysine” value ([11]; listed as Lysine) of the same molecule?
A: increased survival

Q: And the survival [8, 13]?
A: prolongs survival

Q: What about the “effect of oral administration on small intestine healing, paracellular conductance, electrolyte absorption, survival” value [8, 15] of the same molecule?
A: improve small intestine healing, reduces paracellular conductance (thereby improving small intestine mucosal barrier mechanism), increases absorption of electrolytes, and/or improves survival in animals

Q: Which survival [8, 13] does the source give for `C[C@@H](O)[C@H](N)C(=O)O` [threonine] here?
A: prolongs survival

Q: And the “effect of oral administration on small intestine healing, paracellular conductance, electrolyte absorption, survival” value [8, 15]?
A: improve small intestine healing, reduces paracellular conductance (thereby improving small intestine mucosal barrier mechanism), increases absorption of electrolytes, and/or improves survival in animals
